Test results published in patent US10376520B2, “Methods for the treatment of cardiovascular disorders” (Galapagos NV, priority 2015, dated 2019).

System: RA patients
Test: [HDL] determination, Study 1 (RA patients, add-on to MTX)
Format: in vivo, human
Description: Double-blind, placebo-controlled add on study in subjects with moderately to severely active RA who have an inadequate response to methotrexate (MTX) (oral or parenteral).
595 subjects randomized to one of 6 dose regimens of Compound 1 (dosed as a [Compound 1:HCl:3H2O]) (3 dose levels administered either once or twice daily) or placebo on top of each subject's stable dose of MTX.
Compound 1 (dosed as a [Compound 1:HCl:3H2O]) is dosed for twelve weeks once daily (q.d.) (50 mg, 100 mg or 200 mg) or twice daily (b.i.d.) (25 mg, 50 mg or 100 mg); or placebo.
At Week 12, the subjects on placebo who have not achieved 20% improvement in swollen joint count (SJC66) and tender joint count (TJC68) are re-randomized automatically to receive Compound 1 (dosed as a [Compound 1:HCl:3H2O]) either at 100 mg q.d. or 50 mg b.i.d. doses in a blinded fashion; subjects on 50 mg q.d. who have not achieved 20% improvement in SJC66 and TJC68 will be assigned to 100 mg q.d. and subjects on 25 mg b.i.d. that have not achieved a 20% improvement in SJC66 and TJC68 will be assigned to 50 mg b.i.d. Subjects who switch treatment at week 12 are handled as if they discontinued at week 12 for the purpose of statistical analysis, whereas subjects in the other groups will maintain their randomized treatment until Week 24.
This assay relies on a homogeneous enzymatic colorimetric test. In the presence of magnesium ions, dextran sulfate selectively forms water-soluble complexes with LDL, VLDL and chylomicrons which are resistant to PEG-modified enzymes.
The cholesterol concentration of [HDL]-cholesterol is determined enzymatically by cholesterol esterase and cholesterol oxidase coupled with PEG to the amino groups (approx. 40%).
In the presence of peroxidase, the hydrogen peroxide generated reacts with 4-amino-antipyrine and Sodium N-(2-hydroxy-3-sulfopropyl)-3,5-dimethoxyaniline (HSDA) to form a purple-blue dye. The color intensity of this dye is directly proportional to the cholesterol concentration and is measured photometrically.
Human serum and plasma samples [HDL] determination was done on a Roche/Hitachi Cobas c 701/702 system which automatically calculate the analyte concentration of each sample. Samples containing precipitates are centrifuged before performing the assay.

[1] = continued 50 mg q.d. (N = 63), week 4
[2] = continued 50 mg q.d. (N = 63), week 8
[3] = continued 50 mg q.d. (N = 63), week 12
[4] = continued 50 mg q.d. (N = 63), week 16
[5] = continued 50 mg q.d. (N = 63), week 20
[6] = continued 50 mg q.d. (N = 63), week 24
[7] = continued 100 mg b.i.d. (N = 84), week 1
[8] = continued 100 mg b.i.d. (N = 84), week 2
[9] = continued 100 mg b.i.d. (N = 84), week 4
[10] = continued 100 mg b.i.d. (N = 84), week 8
[11] = continued 100 mg b.i.d. (N = 84), week 12
[12] = continued 100 mg b.i.d. (N = 84), week 16
[13] = continued 100 mg b.i.d. (N = 84), week 20
[14] = continued 100 mg b.i.d. (N = 84), week 24
[15] = continued 100 mg q.d. (N = 85), week 1
[16] = continued 100 mg q.d. (N = 85), week 2
[17] = continued 100 mg q.d. (N = 85), week 4
[18] = continued 100 mg q.d. (N = 85), week 8
[19] = continued 100 mg q.d. (N = 85), week 12
[20] = continued 100 mg q.d. (N = 85), week 16
[21] = continued 100 mg q.d. (N = 85), week 20
[22] = continued 100 mg q.d. (N = 85), week 24
[23] = continued 200 mg q.d. (N = 86), week 1
[24] = continued 200 mg q.d. (N = 86), week 2

Structure (SMILES): O=C(Nc1nc2cccc(-c3ccc(CN4CCS(=O)(=O)CC4)cc3)n2n1)C1CC1 [Compound 1, cyclopropanecarboxylic acid {5-[4-(1,1-dioxo-thiomorpholin-4-ylmethyl)-phenyl]-[1,2,4]triazolo[1,5-a]pyridin-2yl}-amide]
- [HDL] Mean percentage CFB - 24 weeks results [1]: 4.87%
- [HDL] Median CFB - 24 weeks results [1]: 0.05 mmol/L
- [HDL] Mean CFB - 24 weeks results [2]: 0.06 mmol/L
- [HDL] Mean percentage CFB - 24 weeks results [2]: 5.57%
- [HDL] Median CFB - 24 weeks results [2]: 0.10 mmol/L
- [HDL] Mean CFB - 24 weeks results [3]: 0.08 mmol/L
- [HDL] Mean percentage CFB - 24 weeks results [3]: 7.86%
- [HDL] Median CFB - 24 weeks results [3]: 0.06 mmol/L
- [HDL] Mean CFB - 24 weeks results [4]: 0.08 mmol/L
- [HDL] Mean percentage CFB - 24 weeks results [4]: 6.63%
- [HDL] Median CFB - 24 weeks results [4]: 0.10 mmol/L
- [HDL] Mean CFB - 24 weeks results [5]: 0.10 mmol/L
- [HDL] Mean percentage CFB - 24 weeks results [5]: 8.81%
- [HDL] Median CFB - 24 weeks results [5]: 0.10 mmol/L
- [HDL] Mean CFB - 24 weeks results [6]: 0.17 mmol/L
- [HDL] Mean percentage CFB - 24 weeks results [6]: 14.22%
- [HDL] Median CFB - 24 weeks results [6]: 0.15 mmol/L
- [HDL] Mean CFB - 24 weeks results [7]: 0.12 mmol/L
- [HDL] Mean percentage CFB - 24 weeks results [7]: 9.40%
- [HDL] Median CFB - 24 weeks results [7]: 0.10 mmol/L
- [HDL] Mean CFB - 24 weeks results [8]: 0.20 mmol/L
- [HDL] Mean percentage CFB - 24 weeks results [8]: 15.20%
- [HDL] Median CFB - 24 weeks results [8]: 0.18 mmol/L
- [HDL] Mean CFB - 24 weeks results [9]: 0.25 mmol/L
- [HDL] Mean percentage CFB - 24 weeks results [9]: 19.54%
- [HDL] Median CFB - 24 weeks results [9]: 0.25 mmol/L
- [HDL] Mean CFB - 24 weeks results [10]: 0.26 mmol/L
- [HDL] Mean percentage CFB - 24 weeks results [10]: 21.15%
- [HDL] Median CFB - 24 weeks results [10]: 0.25 mmol/L
- [HDL] Mean CFB - 24 weeks results [11]: 0.30 mmol/L
- [HDL] Mean percentage CFB - 24 weeks results [11]: 23.14%
- [HDL] Median CFB - 24 weeks results [11]: 0.25 mmol/L
- [HDL] Mean CFB - 24 weeks results [12]: 0.27 mmol/L
- [HDL] Mean percentage CFB - 24 weeks results [12]: 21.09%
- [HDL] Median CFB - 24 weeks results [12]: 0.28 mmol/L
- [HDL] Mean CFB - 24 weeks results [13]: 0.28 mmol/L
- [HDL] Mean percentage CFB - 24 weeks results [13]: 21.88%
- [HDL] Median CFB - 24 weeks results [13]: 0.29 mmol/L
- [HDL] Mean CFB - 24 weeks results [14]: 0.29 mmol/L
- [HDL] Mean percentage CFB - 24 weeks results [14]: 22.68%
- [HDL] Median CFB - 24 weeks results [14]: 0.30 mmol/L
- [HDL] Mean CFB - 24 weeks results [15]: 0.05 mmol/L
- [HDL] Mean percentage CFB - 24 weeks results [15]: 5.43%
- [HDL] Median CFB - 24 weeks results [15]: 0.06 mmol/L
- [HDL] Mean CFB - 24 weeks results [16]: 0.07 mmol/L
- [HDL] Mean percentage CFB - 24 weeks results [16]: 7.02%
- [HDL] Median CFB - 24 weeks results [16]: 0.07 mmol/L
- [HDL] Mean CFB - 24 weeks results [17]: 0.11 mmol/L
- [HDL] Mean percentage CFB - 24 weeks results [17]: 9.40%
- [HDL] Median CFB - 24 weeks results [17]: 0.13 mmol/L
- [HDL] Mean CFB - 24 weeks results [18]: 0.09 mmol/L
- [HDL] Mean percentage CFB - 24 weeks results [18]: 8.18%
- [HDL] Median CFB - 24 weeks results [18]: 0.11 mmol/L
- [HDL] Mean CFB - 24 weeks results [19]: 0.10 mmol/L
- [HDL] Mean percentage CFB - 24 weeks results [19]: 8.49%
- [HDL] Median CFB - 24 weeks results [19]: 0.10 mmol/L
- [HDL] Mean CFB - 24 weeks results [20]: 0.09 mmol/L
- [HDL] Mean percentage CFB - 24 weeks results [20]: 7.94%
- [HDL] Median CFB - 24 weeks results [20]: 0.10 mmol/L
- [HDL] Mean CFB - 24 weeks results [21]: 0.15 mmol/L
- [HDL] Mean percentage CFB - 24 weeks results [21]: 12.24%
- [HDL] Median CFB - 24 weeks results [21]: 0.14 mmol/L
- [HDL] Mean CFB - 24 weeks results [22]: 0.15 mmol/L
- [HDL] Mean percentage CFB - 24 weeks results [22]: 12.17%
- [HDL] Median CFB - 24 weeks results [22]: 0.15 mmol/L
- [HDL] Mean CFB - 24 weeks results [23]: 0.11 mmol/L
- [HDL] Mean percentage CFB - 24 weeks results [23]: 9.42%
- [HDL] Median CFB - 24 weeks results [23]: 0.13 mmol/L
- [HDL] Mean CFB - 24 weeks results [24]: 0.20 mmol/L
- [HDL] Mean percentage CFB - 24 weeks results [24]: 16.66%
- [HDL] Median CFB - 24 weeks results [24]: 0.20 mmol/L
- [HDL] Mean CFB - 24 weeks results (continued 200 mg q.d. (N = 86), week 4): 0.24 mmol/L
